Values quoted from earlier work as cited in patent EP4241780A1, “ENRICHED POLYPHENOLIC FRACTIONS OF ARONIA EXTRACTS AND USES THEREOF” (Diana, priority 2022, dated 2023).

Test system: HepG2 cells
Conditions: 100% pure compounds, reference [31], Figure 4

EC50 intracellular antioxidant activity of pure compounds | SMILES
14.8 µg/mL | Oc1ccc(C=Cc2cc(O)cc(O)c2)cc1 [resveratrol]
7 µg/mL | O=c1c(O)c(-c2ccc(O)c(O)c2)oc2cc(O)cc(O)c12 [quercetin]
